Assay results taken from patent US20060189683A1, “Parenteral formulation of mycophenolic acid, a salt or prodrug thereof” (priority 2003, published 2006).

Experiment: Plasma levels of MPA after intravenous continuous infusion in stable renal transplant patients
Assay type: in vivo, human
Settings: 12 stable renal transplant patients
Description: 12 ml of the solution of example 2 is given to 12 stable renal transplant patients as an intravenous continuous infusion into an arm vein over 30 min with a constant infusion rate of 0.4 ml/min.
Blood samples are taken for 36 h after dosing at the following time points: 0, 10 min, 20 min, 30 min, 45 min, 1.0 h, 1.5 h, 2.0 h, 4.0 h, 8.0 h, 12.0 h, 24.0 h, 36.0 h from the onset of infusion.

Compound: COc1c(C)c2c(c(O)c1C/C=C(\C)CCC(=O)O)C(=O)OC2 [MPA, Mycophenolic acid]
- interpatient variability for AUC0-t (12 ml of solution of example 2, i.v. infusion over 30 min): less than 25%
- half-life (human, iv, 12 ml of the solution of example 2, 12 ml of solution of example 2, i.v. infusion over 30 min, read-out: Mean t1/2 (converted)): 9.68 h
- AUC(0-t) (human, iv, 12 ml of the solution of example 2, 12 ml of solution of example 2, i.v. infusion over 30 min, sampling for 36 h, read-out: Mean MPA AUC0-t): 42100 ng·h/mL
